According to article PMC12274739, “Differential substrate degradation by super-degron: EGFP in wild-type mouse cells, PD-1 requires CRBN humanization” (iScience, 2025):
Several values for one entry are separate records, joined by “and”; a condition that tells them apart may be missing. Equal entries are not always repeated. Where two headings read alike, the source gives them in different places.

Columns and labels:
EGFP-SD = type: cell-based, mouse; details: for ratio of bottom, mouse vs human cell line: EGFP-SD; for bottom vs top, EGFP-SD: IBR up to 1 μM
EGFP-ZFP91 = EGFP-ZFP91 (UniProt P42212+Q8C7D2, F64L/H231L/INS1V/S65T); type: cell-based, mouse; details: read-out: DC50, EGFP-ZFP91, stable
[1] = test system: MC-38 adenocarcinoma cells; test: Growth of inoculated MC-38 adenocarcinoma cells in mice; type: in vivo, mouse
Description: Data are represented as mean ± standard error (SEM). The same experiment was repeated twice to confirm reproducibility. p-values were determined by two-way ANOVA multiple comparisons. ∗∗∗∗p < 0.0001 and ∗p = 0.0267. […] Data are represented as mean ± SEM. The same experiment was repeated twice to confirm reproducibility. p-values were determined by two-way ANOVA multiple comparisons. ∗∗∗∗p < 0.0001, ∗∗∗p = 0.0005, ∗∗p = 0.0067. […] Ratio of PD-1 positive cells and mean fluorescence intensity (MFI) of PD-1 (D), TIM-3 (E), and LAG-3 (F) on CD8^+ and CD4^+ T cells isolated from tumor microenvironments 9 days after the initiation of treatment are shown. Fluorescence intensity of each molecule was measured by flow cytometry, and the geometric MIFs of marker-positive cells were calculated. The data in two experiments were compiled. p-values were determined by the Brown-Forsythe and Welch ANOVA test. Different letters indicate statistically significant differences between groups (p < 0.05). […]
Next, the effects of SD-induced PD-1 reduction were compared with those of anti-PD-1 antibody treatment in vivo. […] CD3^+ T cells infiltrating the MC-38 microenvironment were analyzed on day 9 of treatment before the MC-38 tumor masses had shrunk with treatment and no longer provided sufficient T cells for FACS analyses. […]

SD-EGFP = SD-EGFP (Aequorea victoria, UniProt P42212, F64L/H231L/S65T); details: rat ESCs, stable
[2] = test system: mouse PD-1-mCherry-IKZF minimal tag; test: Degradation of IKZF minimal-tagged mouse PD-1-mCherry in Jurkat cells; type: cell-based, human; details: 24 h
Excerpt: To identify a tag that could efficiently knock down mouse PD-1, we connected various degron tags to the C-terminus of PD-1, including IKZF1/3, Sall4, ZFP91, and SD, and generated Jurkat human T cell lymphoma cell lines that stably expressed the mouse PD-1-degron tag (Figure 1A). As reported previously,[21]^,[22]^,[23] in mouse CRBN, the 391st amino acid corresponding to Val-388 of human CRBN is Ile, which causes a protrusion when a neo substrate binds to CRBN, resulting in a weaker affinity than in human CRBN (Figure 1B). Therefore, a human cell line was used because it was thought that mouse CRBN would not degrade SD by thalidomide analogs. […] We also analyzed the degradation of total proteins using mCherry.
Figure 1 Degradation of various degron-tagged mouse PD-1 in human Jurkat cell line (A) The protein construction of PD-1 tagged with mCherry and a degron tag. […] Valine 388 in human CRBN (red on the left) is replaced by isoleucine in mouse CRBN (gray on the right, over the red valine), causing a conflict between CRBN and IKZF1/3 (yellow ellipse). The stretch of the methyl group in isoleucine causing the conflict is indicated by a yellow arrow. (C) The amount of PD-1 and mCherry fused to IKZF minimal (blue, n = 1), IKZF full length (light blue, n = 1), Sall4 (orange, n = 1) or super degron (SD; red, n = 3) tags in Jurkat human T cell lymphomas 24 h after the addition of pomalidomide (POM) measured by flow cytometry. […] (C and D) The amount was standardized with the sample to which no reagent was added as 1. Concentrations of reagents were 0 (−), 5, 10, and 20 μM for IKZF minimal, IKZF full-length, and Sall4 tags and 0 (−), 0.5, 5 μM for SD tag. The dots indicate the results of the experiment for each of samples.

[3] = test system: mouse PD-1-mCherry-IKZF full-length tag; details: Jurkat, 24 h

EGFP-ZFP91, sequence (Q8C7D2 whole entry, looked up, stated change not applied, other chains not shown): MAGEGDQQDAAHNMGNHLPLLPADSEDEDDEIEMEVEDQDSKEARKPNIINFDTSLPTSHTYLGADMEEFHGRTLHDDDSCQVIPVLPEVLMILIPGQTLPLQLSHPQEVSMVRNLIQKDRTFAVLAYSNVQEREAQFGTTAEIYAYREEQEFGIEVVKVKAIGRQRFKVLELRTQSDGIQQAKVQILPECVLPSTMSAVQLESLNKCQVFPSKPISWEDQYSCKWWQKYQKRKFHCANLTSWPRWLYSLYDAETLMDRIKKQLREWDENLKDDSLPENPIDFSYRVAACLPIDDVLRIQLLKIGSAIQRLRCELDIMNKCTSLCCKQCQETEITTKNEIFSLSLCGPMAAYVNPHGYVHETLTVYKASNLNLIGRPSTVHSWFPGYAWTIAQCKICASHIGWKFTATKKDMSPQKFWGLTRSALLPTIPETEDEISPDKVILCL

O=C1CC[C@H](N2Cc3c(OCc4ccc(CN5CCOCC5)cc4)cccc3C2=O)C(=O)N1 [IBR, iberdomide]
ratio of bottom, mouse vs human cell line (EGFP-SD; EL4 vs Jurkat): 1.804
ratio of bottom, mouse vs human cell line (EGFP-SD; NIH3T3 vs HEK293): 3.605
Bottom, EGFP-SD (EGFP-SD; EL4, stable): 0.04356
DC50 (EGFP-SD; EL4, stable): 75.5 pM
bottom vs top, EGFP-SD (EGFP-SD; EL4, stable): 0.057
Bottom, EGFP-SD (EGFP-SD; NIH3T3, stable): 0.03706
DC50 (EGFP-SD; NIH3T3, stable): 79 pM
bottom vs top, EGFP-SD (EGFP-SD; NIH3T3, stable): 0.049
Bottom, EGFP-SD (EGFP-SD; mouse ESCs, stable): 0.02573
DC50 (EGFP-SD; mouse ESCs, stable): 220 pM
bottom vs top, EGFP-SD (EGFP-SD; mouse ESCs, stable): 0.085
level to which EGFP-SD was suppressed (EGFP-SD; mouse wild-type cell lines, IBR approximately 10^−2 μM to 10^−3 μM): 10%
DC50 (EGFP-ZFP91; B6J-S1 mESCs, Figure 5B): 21000 pM
DC50 (EGFP-ZFP91; CrbnI391V/I391V mESCs, Figure 5E): 834 pM
MC-38 cell proliferation ([1]; Pdcd1+/+/CrbnI391V/I391V mice): comparable
growth of MC-38 cells ([1]; Pdcd1SD/SD/CrbnI391V/I391V mice, oral administration of IBR): suppressed proliferation for the entire period
Bottom, SD-EGFP (SD-EGFP): 0.01454
bottom vs top, SD-EGFP (SD-EGFP; IBR up to 1 μM): 0.057
DC50 (SD-EGFP; read-out: DC50, SD-EGFP): 271 pM

Nc1cccc2c1C(=O)N(C1CCC(=O)NC1=O)C2=O (stereo not shown) [POM, pomalidomide]
LogDC50, mCherry (mC) ([2]; mCherry): 0.04896 µM
Bottom, mCherry (mC) ([2]; mCherry, no reagent = 1): 0.8201
LogDC50, PD-1 (FITC) ([2]; surface PD-1): 0.1515 µM
Bottom, PD-1 (FITC) ([2]; surface PD-1, no reagent = 1): 0.53 and 0.5295
Bottom, mCherry (mC) ([3]; mCherry, no reagent = 1): 0.6165
Bottom, PD-1 (FITC) ([3]; surface PD-1, no reagent = 1): 0.32 and 0.3218
